Measured values: patent US20240239812A1, “MACROCYCLIC 2-ALLYLTETRAHYDROFURANS AS INHIBITORS OF MCL-1” (JANSSEN PHARMACEUTICA NV, priority 2021, published 2024)
pKi: −log10 of the molar value. Where two headings read alike, the source gives them in different places.

What was measured:
[1] = target: Myeloid Cell Leukemia 1 (Mcl-1) (Homo sapiens (Human), UniProt Q07820); experiment: Terbium labeled Mcl-1 HTRF binding assay, displacement of Cy5-labeled BIM BH3 peptide; details: 25 pM Tb-Mcl-1, 8 nM Cy5 Bim peptide, 60 minutes at room temperature, read-out: Tb-MCL1 Ki
Myeloid Cell Leukemia 1 (Mcl-1), sequence (Q07820 whole entry): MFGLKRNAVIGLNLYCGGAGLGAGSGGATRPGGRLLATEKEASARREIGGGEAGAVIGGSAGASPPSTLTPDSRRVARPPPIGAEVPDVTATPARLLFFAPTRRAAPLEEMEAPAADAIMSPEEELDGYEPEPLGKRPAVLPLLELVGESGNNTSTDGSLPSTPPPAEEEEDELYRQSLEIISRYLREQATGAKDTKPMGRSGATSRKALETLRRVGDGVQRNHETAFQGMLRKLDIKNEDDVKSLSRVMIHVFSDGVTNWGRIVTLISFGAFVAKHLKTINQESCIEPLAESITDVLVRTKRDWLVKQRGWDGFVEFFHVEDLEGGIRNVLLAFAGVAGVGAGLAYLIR
Experimental: Terbium labeled Myeloid Cell Leukemia 1 (Mcl-1) homogeneous time-resolved fluorescence (HTRF) binding assay utilizing the BIM BH3 peptide (H2N—(C/Cy5Mal) WIAQELRRIGDEFN-OH) as the binding partner for Mcl-1.
This assay evaluated inhibition of the BH3 domain: Mcl-1 interaction by measuring the displacement of Cy5-labeled BIM BH3 peptide (H2N—(C/Cy5Mal) WIAQELRRIGDEFN-OH) in the HTRF assay format.
The following assay and stock buffers were prepared for use in the assay: (a) Stock buffer: 10 mM Tris-HCl, pH=7.5+150 mM NaCl, filtered, sterilized, and stored at 4° C.; and (b) 1× assay buffer, where the following ingredients were added fresh to stock buffer: 2 mM dithiothreitol (DTT), 0.0025% Tween-20, 0.1 mg/mL bovine serum albumin (BSA). The 1×Tb-Mcl-1+Cy5 Bim peptide solution was prepared by diluting the protein stock solution using the 1× assay buffer (b) to 25 pM Tb-Mcl-1 and 8 nM Cy5 Bim peptide.
Using the Acoustic ECHO, 100 nL of 100× test compound(s) were dispensed into individual wells of a white 384-well Perkin Elmer Proxiplate, for a final compound concentration of 1× and final DMSO concentration of 1%. Inhibitor control and neutral control (NC, 100 nL of 100% DMSO) were stamped into columns 23 and 24 of assay plate, respectively. Into each well of the plate was then dispensed 10 μL of the 1×Tb-Mcl-1+Cy5 Bim peptide solution. The plate was centrifuged with a cover plate at 1000 rpm for 1 minute, then incubated for 60 minutes at room temperature with plates covered.
The TR-FRET signal was read on an BMG PHERAStar FSX MicroPlate Reader at room temperature using the HTRF optic module (HTRF: excitation: 337 nm, light source: laser, emission A: 665 nm, emission B: 620 nm, integration start: 60 μs, integration time: 400 μs).
The BMG PHERAStar FSX MicroPlate Reader was used to measure fluorescence intensity at two emission wavelengths—665 nm and 620 nm—and report relative fluorescence units (RFU) for both emissions, as well as a ratio of the emissions (665 nm/620 nm)*10,000. The RFU values were normalized to percent inhibition as follows:
% inhibition(((NC−IC)−(compound−IC))/(NC−IC))*100
where IC (inhibitor control, low signal)=mean signal of 1× Tb-MCl-1+Cy5 Bim peptide+inhibitor control or 100% inhibition of Mcl-1; NC (neutral control, high signal)=mean signal 1×Tb-MCl-1+Cy5 Bim peptide with DMSO only or 0% inhibition
An 11-point dose response curve was generated to determine IC50 values (using GenData) based on the following equation:
where Y=% inhibition in the presence of X inhibitor concentration; Top=100% inhibition derived from the IC (mean signal of Mcl-1+inhibitor control); Bottom=0% inhibition derived from the NC (mean signal of Mcl-1+DMSO); Hillslope=Hill coefficient; and IC50=concentration of compound with 50% inhibition in relation to top/neutral control (NC).
Representative compounds of the present invention were tested according to the procedure as described above, with results as listed in the Table below (n.d. means not determined).

[2] = tested on: MOLP-8 human multiple myeloma cell line; experiment: Caspase-Glo 3/7 apoptosis induction assay in MOLP-8 cells; type: cell-based; details: caspase-3/7 activity, 2 hours at 37° C., averaged over all runs on all batches, read-out: MOLP8 AC50
Description: MCL-1 is a regulator of apoptosis and is highly over-expressed in tumor cells that escape cell death. The assay evaluates the cellular potency of small-molecule compounds targeting regulators of the apoptosis pathway, primarily MCL-1, Bfl-1, Bcl-2, and other proteins of the Bcl-2 family. Protein-protein inhibitors disrupting the interaction of anti-apoptotic regulators with BH3-domain proteins initiate apoptosis.
The Caspase-Glo® 3/7 Assay is a luminescent assay that measures caspase-3 and -7 activities in purified enzyme preparations or cultures of adherent or suspension cells. The assay provides a proluminescent caspase-3/7 substrate, which contains the tetrapeptide sequence DEVD. This substrate is cleaved to release aminoluciferin, a substrate of luciferase used in the production of light. Addition of the single Caspase-Glo® 3/7 Reagent in an “add-mix-measure” format results in cell lysis, followed by caspase cleavage of the substrate and generation of a “glow-type” luminescent signal.
This assay uses the MOLP-8 human multiple myeloma cell line, which is sensitive to MCL-1 inhibition.
Cell cultures were maintained between 0.2 and 2.0×10^6 cells/mL. The cells were harvested by collection in 50 mL conical tubes. The cells were then pelleted at 500 g for 5 mins before removing supernatant and resuspension in fresh pre-warmed culture medium. The cells were counted and diluted as needed.
The assay reagent was prepared by transferring the buffer solution to the substrate vial and mixing. The solution may be stored for up to 1 week at 4° C. with negligible loss of signal.
Compounds were delivered in assay-ready plates (Proxiplate) and stored at −20° C.
Assays always include 1 reference compound plate containing reference compounds. The plates were spotted with 40 nL of compounds (0.5% DMSO final in cells; serial dilution; 30 μM highest conc. 1/3 dilution, 10 doses, duplicates). The compounds were used at room temperature and 4 μL of pre-warmed media was added to all wells except column 2 and 23. The negative control was prepared by adding 1% DMSO in media. The positive control was prepared by adding the appropriate positive control compound in final concentration of 60 μM in media. The plate was prepared by adding 4 μL negative control to column 23, 4 μL positive control to column 2, and 4 μL cell suspension to all wells in the plate. The plate with cells was then incubated at 37° C. for 2 hours. The assay signal reagent is the Caspase-Glo solution described above, and 8 μL was added to all wells. The plates were then sealed and measured after 30 minutes.
The activity of a test compound was calculated as percent change in apoptosis induction as follows: […]

Structure (SMILES)	pKi [1]	AC50 ([2]; Homo sapiens, MOLP-8, 2 h) [nM]	AC50 [2] [nM]
CO[C@H]1/C=C/C[C@H](C)[C@@H](C)S(=O)(=O)NC(=O)c2ccc3c(c2)N(C[C@@H]2CCO[C@H]21)C[C@@]1(CCCc2cc(Cl)ccc21)CO3 [Compound 3]	9.33	432	–
COc1nn(C)cc1C(=O)NS1(=O)=NC(=O)c2ccc3c(c2)N(C[C@@H]2CCO[C@H]2C(CN2CCN4CCOC[C@@H]4C2)(OC)/C(F)=C/C[C@H](C)C1)C[C@@]1(CCCc2cc(Cl)ccc21)CO3 (single isomer, unassigned) [Compound 27]	10.32	–	424
COC1/C(F)=C/C[C@H](C)[C@@H](C)S(=O)(=O)NC(=O)c2cnc3c(n2)N(C[C@@H]2CCO[C@@H]12)C[C@@]1(CCCc2cc(Cl)ccc21)CO3 (single isomer, unassigned) [Compound 13]	7.45	–	15200
COc1nn(C)cc1C(=O)NS1(=O)=NC(=O)c2ccc3c(c2)N(C[C@@H]2CCO[C@H]2C(OC)/C(F)=C/C[C@H](C)C1)C[C@@]1(CCCc2cc(Cl)ccc21)CO3 (single isomer, unassigned) [Compound 24]	10.96	–	44
COc1nn(C)cc1C(=O)NS1(=O)=NC(=O)c2ccc3c(c2)N(C[C@@H]2CCO[C@H]2C(CN2CCN4CCOC[C@@H]4C2)(OC)/C(F)=C/C[C@H](C)C1)C[C@@]1(CCCc2cc(Cl)ccc21)CO3 (single isomer, unassigned) [Compound 30]	10.85	–	28.6
C[C@@H]1[C@@H](C)C/C=C/C(CO)[C@@H]2OCC[C@H]2CN2C[C@@]3(CCCc4cc(Cl)ccc43)COc3ccc(cc32)C(=O)NS1(=O)=O (single isomer, unassigned) [Compound 15]	9.20	–	2920
C[C@@H]1[C@@H](C)C/C=C(\F)C(OCCN2CCOCC2)[C@@H]2OCC[C@H]2CN2C[C@@]3(CCCc4cc(Cl)ccc43)COc3ccc(cc32)C(=O)NS1(=O)=O (single isomer, unassigned) [Compound 5]	9.35	–	1100
COCCN(CCOC)CC1(OC)/C(F)=C/C[C@H](C)[C@@H](C)S(=O)(=O)NC(=O)c2ccc3c(c2)N(C[C@@H]2CCO[C@H]21)C[C@@]1(CCCc2cc(Cl)ccc21)CO3 (single isomer, unassigned) [Compound 18]	10.02	412	–
C[C@@H]1[C@@H](C)C/C=C(\F)C(OCCN2CCOCC2)[C@@H]2OCC[C@H]2CN2C[C@@]3(CCCc4cc(Cl)ccc43)COc3ccc(cc32)C(=O)NS1(=O)=O (single isomer, unassigned) [Compound 4]	9.72	–	314
COc1nn(C)cc1C(=O)NS1(=O)=NC(=O)c2ccc3c(c2)N(C[C@@H]2CCO[C@H]2C(OC)/C(F)=C/C[C@H](C)C1)C[C@@]1(CCCc2cc(Cl)ccc21)CO3 (single isomer, unassigned) [Compound 26]	8.29	–	> 5000
COc1nn(C)cc1C(=O)NS1(=O)=NC(=O)c2ccc3c(c2)N(C[C@@H]2CCO[C@H]2C(OC)/C(F)=C/C[C@H](C)C1)C[C@@]1(CCCc2cc(Cl)ccc21)CO3 (single isomer, unassigned) [Compound 25]	10.60	–	486
COCC1/C=C/C[C@H](C)[C@@H](C)S(=O)(=O)NC(=O)c2ccc3c(c2)N(C[C@@H]2CCO[C@@H]12)C[C@@]1(CCCc2cc(Cl)ccc21)CO3 (stereo partly drawn) [Compound 16]	9.17	1820	–
COc1nn(C)cc1C(=O)NS1(=O)=NC(=O)c2ccc3c(c2)N(C[C@@H]2CCO[C@H]2C(OC)/C=C/C[C@H](C)C1)C[C@@]1(CCCc2cc(Cl)ccc21)CO3 (single isomer, unassigned) [Compound 11]	9.03	–	1310
C[C@@H]1[C@@H](C)C/C=C/C(O)[C@@H]2OCC[C@H]2CN2C[C@@]3(CCCc4cc(Cl)ccc43)COc3ccc(cc32)C(=O)NS1(=O)=O (single isomer, unassigned) [Compound 19]	9.14	752	–
COc1nn(C)cc1C(=O)NS1(=O)=NC(=O)c2ccc3c(c2)N(C[C@@H]2CCO[C@H]2C(CN2CCN4CCOC[C@@H]4C2)(OC)/C(F)=C/C[C@H](C)C1)C[C@@]1(CCCc2cc(Cl)ccc21)CO3 (single isomer, unassigned) [Compound 28]	10.96	–	23.2
CO[C@]1(CN2CCN3CCOC[C@@H]3C2)/C(F)=C/C[C@H](C)[C@@H](C)S(=O)(=O)NC(=O)c2ccc3c(c2)N(C[C@@H]2CCO[C@H]21)C[C@@]1(CCCc2cc(Cl)ccc21)CO3 [Compound 7]	–	88	–
COc1nn(C)cc1C(=O)NS1(=O)=NC(=O)c2ccc3c(c2)N(C[C@@H]2CCO[C@H]2C(OC)/C(F)=C/C[C@H](C)C1)C[C@@]1(CCCc2cc(Cl)ccc21)CO3 (single isomer, unassigned) [Compound 23]	9.60	–	2420
COc1nn(C)cc1C(=O)NS1(=O)=NC(=O)c2ccc3c(c2)N(C[C@@H]2CCO[C@H]2C(OC)/C=C/C[C@H](C)C1)C[C@@]1(CCCc2cc(Cl)ccc21)CO3 (single isomer, unassigned) [Compound 10]	9.40	–	453
C[C@@H]1[C@@H](C)C/C=C(\F)C(O)(CC(=O)N(C)C)[C@@H]2OCC[C@H]2CN2C[C@@]3(CCCc4cc(Cl)ccc43)COc3ccc(cc32)C(=O)NS1(=O)=O (single isomer, unassigned) [Compound 21]	9.74	–	436
COC1/C(F)=C/C[C@H](C)[C@@H](C)S(=O)(=O)NC(=O)c2cnc3c(n2)N(C[C@@H]2CCO[C@@H]12)C[C@@]1(CCCc2cc(Cl)ccc21)CO3 (single isomer, unassigned) [Compound 12]	8.28	–	1220
C[C@@H]1[C@@H](C)C/C=C/C(OCCN2CCOCC2)[C@@H]2OCC[C@H]2CN2C[C@@]3(CCCc4cc(Cl)ccc43)COc3ccc(cc32)C(=O)NS1(=O)=O (single isomer, unassigned) [Compound 20]	9.65	616	–
CO[C@@]1(CN2CCN3CCOC[C@@H]3C2)/C(F)=C/C[C@H](C)[C@@H](C)S(=O)(=O)NC(=O)c2ccc3c(c2)N(C[C@@H]2CCO[C@H]21)C[C@@]1(CCCc2cc(Cl)ccc21)CO3 [Compound 6]	–	69	–
